In US11584742B2 (MASARYKOVA UNIVERZITA, priority 2018, dated 2023):
pIC50: −log10 of the molar value.

How the values were obtained:
DR-GFP U2OS cells = assay: HR assay (GFP fluorescence after I-SceI transfection, flow cytometry); format: cell-based; details: Homo sapiens, inhibitor at 25 μM, 72 hours after transfection
Experimental: DR-GFP U2OS cells (Methods in Molecular Biology 2012, 920, 379.) were transfected with 2.5 μg of I-SceI-expressing pCAGGS vector and treated with the inhibitors at 25 μM concentration. 72 hours after the transfection, the cells were trypsinized and resuspended in 3% BSA in PBS. GFP fluorescence detection was carried out using a BD FACSVerse flow cytometer and data analyzed with FlowJo software.

MRE11 = molecular target: T1, MRE11 (Homo sapiens, UniProt P49959); assay: HTS nuclease assay (cleavage of CY5/BBQ-quenched 5' overhang DNA substrate); format: biochemical; details: in vitro HTS nuclease assay; 18 nM MRE11, 40 nM DNA substrate; analysis at t=4 h
T1 sequence (P49959 1-708): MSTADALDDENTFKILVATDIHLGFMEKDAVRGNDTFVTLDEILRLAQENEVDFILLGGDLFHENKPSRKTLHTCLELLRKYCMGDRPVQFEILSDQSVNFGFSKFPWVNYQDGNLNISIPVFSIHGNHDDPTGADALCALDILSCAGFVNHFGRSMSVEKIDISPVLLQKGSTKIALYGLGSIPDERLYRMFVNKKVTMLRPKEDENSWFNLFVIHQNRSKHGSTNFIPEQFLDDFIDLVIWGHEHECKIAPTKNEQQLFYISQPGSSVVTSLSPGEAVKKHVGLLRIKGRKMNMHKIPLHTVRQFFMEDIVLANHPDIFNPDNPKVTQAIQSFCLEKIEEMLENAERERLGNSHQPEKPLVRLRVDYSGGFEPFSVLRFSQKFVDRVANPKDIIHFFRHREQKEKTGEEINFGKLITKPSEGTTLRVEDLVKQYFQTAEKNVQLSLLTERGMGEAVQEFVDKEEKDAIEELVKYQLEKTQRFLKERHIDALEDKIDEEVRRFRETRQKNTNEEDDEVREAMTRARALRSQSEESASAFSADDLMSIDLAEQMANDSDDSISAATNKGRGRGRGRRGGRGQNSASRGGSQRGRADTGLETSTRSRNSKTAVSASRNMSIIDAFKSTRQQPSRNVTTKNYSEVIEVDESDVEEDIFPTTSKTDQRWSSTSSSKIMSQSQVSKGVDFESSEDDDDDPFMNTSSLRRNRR
Experimental: DNA Substrate Preparation
The DNA substrate is prepared by mixing the oligonucleotides listed below in a 1:1 ratio to reach a final concentration of 6 μM in a buffer containing 50 mM Tris pH 7.5, 100 mM NaCl and 8 mM MgCl2.
This substrate is a 5′ overhang, which is a preferred substrate of MRE11. […] The fluorescence increases upon substrate cleavage by MRE11, when separation of the two labels occur.
The conditions of the assay are as follows:
Total reaction volume: 5 μL
DNA substrate concentration in the reaction: 40 nM
Inhibitor concentration range tested: 7 nM-50 μM
Each plate contains a series of high and low signal control wells, where no compound is added:
High signal: MRE11+DNA substrate
Low signal: DNA substrate only
These are used during data evaluation.
Two extra assay controls:
1) To check whether unwinding of DNA by the compounds alone occurs.
The DNA substrate [CY5+BBQ(650)] is mixed with the compounds with no protein present.
The CY5 single stranded oligo is mixed with the compounds with no protein present.
The layout of the plates is created by the in-house software (CZ-Openscreen Prague) and this information is transferred to the robotic HTS station.
The reaction is started by the addition of DNA and the reaction time is counted from that moment, including a 15 min delay. Ten timepoints are measured:
The assay data analysis was performed at t=4 h. This corresponds to the time when the reaction is close to its maximum.
The data analysis was performed using the in-house software to obtain IC50 for each compound.

| pIC50 (MRE11) | SMILES | inhibition at 25 µM (DR-GFP U2OS cells) [%] |
| --- | --- | --- |
| > 5.70 | COc1ccc(-c2csc(NC(=O)/C(C#N)=C/c3ccc(O)c(O)c3)n2)cc1 [Preparative Example 162, (E)-2-cyano-3-(3,4-dihydroxyphenyl)-N-(4-(4-methoxyphenyl)thiazol-2-yl)acrylamide] | > 75 |
| > 5.70 | N#C/C(=C\c1ccc(O)c(O)c1)C(=O)Nc1nc(-c2ccc3ccccc3c2)cs1 [Preparative Example 163, (E)-2-cyano-3-(3,4-dihydroxyphenyl)-N-(4-(naphthalen-2-yl)thiazol-2-yl)acrylamide] | > 75 |
| 5.00 to 5.70 | N#C/C(=C\c1ccc(O)c(O)c1)C(=O)Nc1nc(-c2ccc(-c3ccccc3)cc2)cs1 [Preparative Example 164, (E)-N-(4-([1,1′-biphenyl]-4-yl)thiazol-2-yl)-2-cyano-3-(3,4-dihydroxyphenyl)acrylamide] | > 75 |
| > 5.70 | COc1ccc(-c2csc(NC(=O)/C(C#N)=C/c3ccc(O)c(O)c3)n2)cc1O [Preparative Example 166, (E)-2-cyano-3-(3,4-dihydroxyphenyl)-N-(4-(3-hydroxy-4-methoxyphenyl)thiazol-2-yl)acrylamide] | > 75 |
| 5.00 to 5.70 | CC(C)(O)c1csc(NC(=O)/C(C#N)=C/c2ccc(O)c(O)c2)n1 [Preparative Example 167, (E)-2-cyano-3-(3,4-dihydroxyphenyl)-N-(4-(2-hydroxypropan-2-yl)thiazol-2-yl)acrylamide] | < 50 |
| > 5.70 | Cc1ccc(-c2csc(NC(=O)/C(C#N)=C/c3cc(Cl)c(O)c(Cl)c3)n2)cc1 [Preparative Example 168] | > 75 |
| > 5.70 | N#C/C(=C\c1ccc(O)c(O)c1)C(=O)Nc1nc(-c2cccc(Br)c2)cs1 [Preparative Example 169, (E)-N-(4-(3-bromophenyl)thiazol-2-yl)-2-cyano-3-(3,4-dihydroxyphenyl)acrylamide] | > 75 |
| > 5.70 | N#C/C(=C\c1ccc(O)c(O)c1)C(=O)Nc1nc(-c2ccccc2Br)cs1 [Preparative Example 170, (E)-N-(4-(2-bromophenyl)thiazol-2-yl)-2-cyano-3-(3,4-dihydroxyphenyl)acrylamide] | 50 to 75 |
| 5.00 to 5.70 | N#C/C(=C\c1ccc(O)c(O)c1)C(=O)Nc1nc(-c2cccc(OC(F)(F)F)c2)cs1 [Preparative Example 171, (E)-2-cyano-3-(3,4-dihydroxyphenyl)-N-(4-(3-(trifluoromethoxy)phenyl)thiazol-2-yl)acrylamide] | 50 to 75 |
| 5.00 to 5.70 | N#C/C(=C\c1ccc(O)c(O)c1)C(=O)Nc1nc(-c2ccc(Oc3ccccc3)cc2)cs1 [Preparative Example 172, (E)-2-cyano-3-(3,4-dihydroxyphenyl)-N-(4-(4-phenoxyphenyl)thiazol-2-yl)acrylamide] | > 75 |
| > 5.70 | N#C/C(=C\c1ccc(O)c(O)c1)C(=O)Nc1nc(-c2cc3ccccc3o2)cs1 [Preparative Example 173, (E)-N-(4-(benzofuran-2-yl)thiazol-2-yl)-2-cyano-3-(3,4-dihydroxyphenyl)acrylamide] | > 75 |
| 5.00 to 5.70 | N#C/C(=C\c1ccc(O)c(O)c1)C(=O)Nc1nc(C23CC4CC(CC(C4)C2)C3)cs1 [Preparative Example 174, (E)-N-(4-((1S,3s)-adamantan-1-yl)thiazol-2-yl)-2-cyano-3-(3,4-dihydroxyphenyl)acrylamide] | 50 to 75 |

Second part, the compound before the results:

| SMILES | pIC50 (MRE11) | inhibition at 25 µM (DR-GFP U2OS cells) [%] |
| --- | --- | --- |
| N#CC(C(=O)Nc1nc(-c2ccccc2)cs1)=C(c1ccccc1)c1ccc(O)c(O)c1 (mixture of isomers) [Preparative Example 190, (E/Z)-2-cyano-3-(3,4-dihydroxyphenyl)-3-phenyl-N-(4-phenylthiazol-2-yl)acrylamide] | > 5.70 | > 75 |
| N#CC(=Cc1c[nH]cn1)C(=O)Nc1nc(-c2ccccc2)cs1 (racemic) [Preparative Example 214, (E)- and (Z)-2-cyano-3-(1H-imidazol-4-yl)-N-(4-phenylthiazol-2-yl)acrylamide] | 4.05 to 5.00 | < 50 |
| N#C/C(=C\c1cc(Cl)c(O)c(Cl)c1)C(=O)Nc1nc(-c2ccc(Br)cc2)cs1 [Preparative Example 165, (E)-N-(4-(4-bromophenyl)thiazol-2-yl)-2-cyano-3-(3,5-dichloro-4-hydroxyphenyl)acrylamide] | > 5.70 | 50 to 75 |
| N#C/C(=C\c1ccc(O)c(O)c1)C(=O)Nc1nc(-c2ccc(OC(F)(F)F)cc2)c(C2CCCCC2)s1 [Preparative Example 175, (E)-2-cyano-N-(5-cyclohexyl-4-(4-(trifluoromethoxy)phenyl)thiazol-2-yl)-3-(3,4-dihydroxyphenyl)acrylamide] | 5.00 to 5.70 | > 75 |
| Cc1cc(/C=C(\C#N)C(=O)Nc2nc(-c3ccc(OC(F)(F)F)cc3)cs2)cc(C)c1O [Preparative Example 177, (E)-2-cyano-3-(3,5-dimethyl-4-hydroxyphenyl)-N-(4-(4-(trifluoromethoxy)phenyl)thiazol-2-yl)acrylamide] | – | > 75 |
| Cc1cc(/C=C(\C#N)C(=O)Nc2nc(-c3ccccc3)cs2)ccc1O [Preparative Example 217, (E)-2-cyano-3-(4-hydroxy-3-methylphenyl)-N-(4-phenylthiazol-2-yl)acrylamide] | – | 50 to 75 |
| N#C/C(=C\c1ccc(O)cc1O)C(=O)Nc1nc(-c2ccccc2)cs1 [Preparative Example 218, (E)-2-cyano-3-(2,4-dihydroxyphenyl)-N-(4-phenylthiazol-2-yl)acrylamide] | – | 50 to 75 |
| CC(C)(C)c1cc(/C=C(\C#N)C(=O)Nc2nc(-c3ccc(OC(F)(F)F)cc3)cs2)cc(C(C)(C)C)c1O [Preparative Example 221] | – | < 50 |
| Cc1cc(/C=C(\C#N)C(=O)Nc2nc(-c3ccccc3)cs2)cc(C(C)(C)C)c1O [Preparative Example 234, (E)-3-(3-(tert-butyl)-4-hydroxy-5-methylphenyl)-2-cyano-N-(4-phenylthiazol-2-yl)acrylamide] | – | > 75 |
| CC(C)(C)c1cc(/C=C(\C#N)C(=O)Nc2nc(-c3ccccc3)cs2)ccc1O [Preparative Example 235, (E)-3-(3-(tert-butyl)-4-hydroxyphenyl)-2-cyano-N-(4-phenylthiazol-2-yl)acrylamide] | – | > 75 |
| CC(C)c1cc(/C=C(\C#N)C(=O)Nc2nc(-c3ccccc3)cs2)cc(C(C)C)c1O [Preparative Example 237, (E)-2-cyano-3-(4-hydroxy-3,5-diisopropylphenyl)-N-(4-phenylthiazol-2-yl)acrylamide] | – | > 75 |
| CC(C)(C)c1cc(/C=C(\C#N)C(=O)Nc2nc(-c3ccccc3)cs2)cc(C(C)(C)C)n1 [Preparative Example 240, (E)-2-cyano-3-(2,6-di-tert-butylpyridin-4-yl)-N-(4-phenylthiazol-2-yl)acrylamide] | – | > 75 |
| N#C/C(=C\c1cc(Cl)c(O)c(Cl)c1)C(=O)Nc1nc(Cc2ccccc2)cs1 [Preparative Example 275, (E)-N-(4-benzylthiazol-2-yl)-2-cyano-3-(3,5-dichloro-4-hydroxyphenyl)acrylamide] | 4.05 to 5.00 | – |
| N#C/C(=C\c1cc(Br)c(O)c(Br)c1)C(=O)Nc1nc(Cc2ccccc2)cs1 [Preparative Example 276, (E)-N-(4-benzylthiazol-2-yl)-2-cyano-3-(3,5-dibromo-4-hydroxyphenyl)acrylamide] | 5.00 to 5.70 | – |
